The nature of assay [1]: HepG2 cell cytotoxicity, dose response, cytotoxicity control, ATP luminescence, cherry-pick, activator set 2 (AID 1053143). Type of assay: functional, cell-based.
Assay [2] can be described thus: A549 cell cytotoxicity, dose response, cytotoxicity control, plate reader, cherry-pick, antagonist series (AID 743412). Type of assay: functional, cell-based.
Assay [3] can be described thus: MC4R antagonists, dose response, counter-screen for LGR2 antagonist project, cell-based, plate reader, cherry pick (AID 743444).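 Note: transfected HEK 293 cells stimulated with alpha-MSH peptide; potency of inhibitors of the alpha-MSH evoked signal.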 Type of assay: functional.
Assay [4] is described as follows: HepG2 cell cytotoxicity, dose response, cytotoxicity control, plate reader, cherry-pick, antagonist series (AID 743416). The class given is functional, cell-based.
The nature of assay [5]: LGR2 antagonists, dose response, cell-based, HEK293, CRE-luciferase reporter, cherry pick, set 2 (AID 743343).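 Note: transfected cells were stimulated with diluted bursicon conditioned medium after compound addition.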 Type of assay: functional. (In general: In a reporter assay the amount or activity of a reporter protein is the signal.)
Assay [6] in a line: HEK293 cell cytotoxicity, dose response, cytotoxicity control, plate reader, cherry-picked samples (AID 743446). Type of assay: functional, cell-based.
For a further assay, the target named is Kallikrein-7 (Homo sapiens, UniProt P49862). The experiment in a line: Fluorescence Intensity-based biochemical primary high throughput dose response assay to identify activators of kallikrein-7 (K7) zymogen.
The target of assay [7] is NAD-dependent protein deacylase sirtuin-5, mitochondrial (Homo sapiens, UniProt Q9NXA8). The assay is described as follows: SIRT5 desuccinylase inhibitors, dose response, biochemical, fluorescence imaging, cherry-pick, set 5 (AID 720591).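 Note: desuccinylation of succinyl peptide AMC substrate read as fluorescence after trypsin release; potency of inhibitors that lower fluorescence and may act on trypsin instead.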
A short description of assay [8]: cells.
The next assay has as its target Major prion protein (Homo sapiens, UniProt P04156). Type of assay: functional, cell-based.
The nature of assay [9]: miR-122 activators in hepatoma reporter cells, dose response, cell-based, Huh7 psiCHECK-miR122, Renilla luciferase, cherry-picked (AID 651956).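 Note: huh7 hepatoma cells stably carrying a psiCHECK-2 miR-122 sensor plasmid; renilla luciferase signal reporting endogenous miR-122 activity after 48 h compound exposure.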 Type of assay: functional.
The nature of assay [10]: NIH:OVCAR-3 ovarian cancer cell cytotoxicity, dose response, PAX8 inhibitor project, plate reader, dry powder samples (AID 743044). The class given is functional, cell-based.
A short description of assay [11]: HEK293T cytotoxicity, dose response, cytotoxicity control for miR-122 modulator project, cell-based, inhibitor set, cherry-pick, set 2 (AID 720697). The class given is functional.
Assay [12] is described as follows: IGROV1 ovarian cancer cell cytotoxicity, dose response, PAX8 inhibitor project, plate reader, dry powder samples (AID 743043). Type of assay: functional, cell-based. As to conditions: IGROV-1.
Assay [13] can be described thus: cytotoxicity in OVCAR8 ovarian cancer cells, dose response, PAX8 project, cell-based, plate reader, dry powder samples (AID 743197). The class given is functional. As to conditions: OVCAR-8.
Assay [14] in a line: HEK293T cytotoxicity, dose response, cytotoxicity control for miR-122 modulator project, cell-based, activator set, cherry-pick (AID 720690).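 Note: HEK293T human cells scored for general mammalian cytotoxicity.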 The class given is functional.
A further assay concerns the target Paired box protein Pax-8 (Homo sapiens, UniProt Q06710). The experiment in a line: inhibitors of PAX8-driven TPO luciferase reporter, dose response, RMG-I cells, cherry-pick (AID 687027).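 Note: luciferase reporter driven by Pax8 target thyroperoxidase promoter measured by SteadyGlo luminescence.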 The class given is functional, cell-based.
A short description of assay [15]: A2780 ovarian cancer cell cytotoxicity, dose response, cytotoxicity control, plate reader, dry powder samples (AID 743046). The class given is functional, cell-based.
Assay [16] is described as follows: HEK293 Cytotoxicity Assay Measured in Cell-Based System Using Plate Reader - 7071-01_Inhibitor_Dose_CherryPick_Activity_Set2. The class given is functional.
In a further assay the test system is HEK293. The assay is described as follows: HEK293T cell cytotoxicity, dose response, cytotoxicity control, ATP luminescence, cherry-pick samples (AID 687005).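 Note: cells exposed to compound for 48 hours.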 Type of assay: functional, cell-based. The settings on record: Homo sapiens.
Assay [17] is described as follows: cytotoxicity in OVCAR4 cells, dose response, cytotoxicity control for PAX8 inhibitor project, cell-based, plate reader, dry powder, SA11 (AID 743150). As to conditions: OVCAR-4. Type of assay: functional.
The nature of assay [18]: PAX2 cell-based inhibition, dose response, selectivity assay for PAX8 inhibitor project, plate reader, dry powder samples (AID 743048).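 Note: HEK293 cells carrying a WT1 promoter luciferase reporter driven by expressed Pax2; potency is for inhibition of Pax2 driven reporter signal.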 The class given is functional.
The nature of assay [19]: PAX5 activity inhibitors, dose response, selectivity assay for PAX8 inhibitor project, cell-based, plate reader, dry powder samples (AID 743047).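 Note: HEK293 cells carrying a Pax5 driven CD19 promoter luciferase reporter; potency of inhibitors that lower reporter luminescence.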 Type of assay: functional.
Assay [20] in a line: cytotoxicity in COV434 cells, dose response, cytotoxicity control for PAX8 inhibitor project, cell-based, plate reader, dry powder, SA7 (AID 743145). The class given is functional.
Assay [21] in a line: cytotoxicity in COV362 ovarian cancer cells, dose response, cytotoxicity control for PAX8 inhibitor project, cell-based, plate reader, dry powder, SA12 (AID 743144). Type of assay: functional.
Assay [22] in a line: cytotoxicity in OV-90 ovarian cancer cells, dose response, PAX8 inhibitor project, cell-based, plate reader, dry powder, SA8 (AID 743149). The class given is functional.
The nature of assay [23]: cytotoxicity dependent on PAX8, dose response, cell-based, plate reader, dry powder (AID 743049). Type of assay: functional.
Assay [24] addresses Potassium channel subfamily K member 9 (Homo sapiens, UniProt Q9NPC2). The assay is described as follows: TASK3 (KCNK9) channel inhibitors, thallium flux, SAR follow-up, selectivity assay for TASK1 inhibitor project, cell-based, FluxOR thallium flux, concentration-response (AID 652211).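 Note: potency is for inhibitors of the channel.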 Type of assay: functional.
The target in assay [25] is Potassium channel subfamily K member 3 (Homo sapiens, UniProt O14649). The assay is described as follows: TASK1 (KCNK3) potassium channel inhibitors, SAR follow-up, CHO cells, FluxOR thallium flux (AID 652212). Type of assay: functional.
Assay [26] deals with G-protein coupled receptor 183 (Homo sapiens, UniProt P32249). The experiment in a line: SAR confirmation of small molecule antagonists of the EBI2 receptor via a luminescent beta-arrestin assa. The class given is functional.
A further assay has as its system Streptococcus. The experiment in a line: Group A Streptococcus viability loss, dose response, counter-screen for streptokinase expression inhibitor project, luminescence, BacTiterGlo (AID 1915).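 Note: potency for reduction of bacterial viability or growth.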 Type of assay: functional, organism-based. In general terms: The purpose of a counterscreen is to sort out artefacts and off-target activity.
The test system of assay [27] is Streptococcus sp. 'group A'. The assay is described as follows: growth inhibition of control SK(-) GAS strain, dose response, counter-screen for streptokinase expression inhibitor project, luminescence, kanamycin, BacTiterGlo, confirmation (AID 1900). Type of assay: functional, organism-based.
Another assay has as its target T1, Streptokinase A (Streptococcus pyogenes serotype M1, UniProt P10520).
T1 sequence (P10520 whole entry): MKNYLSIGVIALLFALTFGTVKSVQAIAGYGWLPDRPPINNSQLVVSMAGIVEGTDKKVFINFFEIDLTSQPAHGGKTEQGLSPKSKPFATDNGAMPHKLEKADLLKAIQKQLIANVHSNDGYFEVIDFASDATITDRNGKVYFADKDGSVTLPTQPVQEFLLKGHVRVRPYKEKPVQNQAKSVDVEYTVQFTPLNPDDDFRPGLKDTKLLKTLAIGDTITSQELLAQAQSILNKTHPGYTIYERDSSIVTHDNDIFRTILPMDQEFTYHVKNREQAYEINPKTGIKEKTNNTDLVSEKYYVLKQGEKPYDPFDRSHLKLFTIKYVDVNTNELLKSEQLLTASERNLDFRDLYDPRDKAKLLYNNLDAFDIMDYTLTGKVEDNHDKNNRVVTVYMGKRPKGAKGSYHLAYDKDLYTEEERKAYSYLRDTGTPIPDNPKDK
The assay is described as follows: S. pyogenes streptokinase expression inhibitors, potency, dose response, plasminogen activation absorbance, OD405 (AID 1914).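 Note: secreted streptokinase activity via plasminogen activation per viability signal from cell pellet.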 Type of assay: functional, Streptococcus pyogenes M1 GAS.

A further assay deals with T2, Protein skinhead-1 (Caenorhabditis elegans, UniProt P34707).
T2 sequence (P34707 whole entry): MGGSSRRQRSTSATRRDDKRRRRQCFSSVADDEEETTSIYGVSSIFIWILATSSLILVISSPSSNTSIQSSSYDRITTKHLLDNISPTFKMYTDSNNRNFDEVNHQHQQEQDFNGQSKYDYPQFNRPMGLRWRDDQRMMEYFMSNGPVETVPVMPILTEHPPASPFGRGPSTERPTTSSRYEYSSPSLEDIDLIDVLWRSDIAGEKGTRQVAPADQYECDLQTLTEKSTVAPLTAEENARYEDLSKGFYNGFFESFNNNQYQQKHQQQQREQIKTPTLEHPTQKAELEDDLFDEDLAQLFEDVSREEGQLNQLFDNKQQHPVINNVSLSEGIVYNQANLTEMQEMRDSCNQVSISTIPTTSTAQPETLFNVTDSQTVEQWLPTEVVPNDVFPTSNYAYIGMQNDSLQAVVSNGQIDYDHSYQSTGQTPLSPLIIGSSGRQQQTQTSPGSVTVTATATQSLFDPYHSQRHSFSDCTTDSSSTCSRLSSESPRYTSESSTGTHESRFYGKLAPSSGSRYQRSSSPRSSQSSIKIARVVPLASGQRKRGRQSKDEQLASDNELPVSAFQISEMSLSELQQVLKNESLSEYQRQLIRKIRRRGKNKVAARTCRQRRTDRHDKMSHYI
Type of assay: functional.

Assay [28] can be described thus: cells. This is another data set of the same source.
The nature of assay [29]: HEp-2 cell cytotoxicity, dose response, cytotoxicity control for RSV inhibitor project, HTS (AID 2410). The class given is functional. As to conditions: human respiratory syncytial virus.

The source made the active and inactive calls.

Broadly, the AC50 is the concentration giving half of the maximal activity seen. A word on the EC50: it is the concentration needed to bring the measured effect to its halfway point. By IC50 is commonly meant the point on the concentration scale where inhibition reaches its midpoint. As usually defined, the CC50 is the concentration that lowers cell viability or growth by half.

Regarding `O=C(Nc1ccc2c(c1)CCC2)Nc1ccccc1Cl`, the AC50 in assay [1] was 26 µM (active).

Consider `NC(=O)c1ccsc1NC(=O)c1ccc(N2CCCC2=O)cc1`, for which the AC50 in assay [2] was 50.9 µM (active); in assay [3] it was 16.5 µM (active); in assay [4], > 52 µM (inactive); in assay [5], 10.5 µM (active); in assay [6], > 52 µM (inactive).

On to `CN1C(=O)c2ccccc2N(C)C1c1ccc(F)cc1` (stereo not given), for which the EC50 on Kallikrein-7 is > 69.5 µM (inactive).

Turning to `O=C(Cn1cnc(S(=O)(=O)N2CCCC2)c1)Nc1cccc(Br)c1`, the AC50 in [7] was > 30 µM (inactive).

In the case of `Cc1nnc(S)c2nn(-c3ccccc3F)c(C)c12`, the IC50 was > 138 µM (inactive) in “cells [8]” and 8.71 µM (active) on Major prion protein.

In the case of `CCOC(=O)c1c(-c2ccccc2)oc2cc(Br)c(O)cc12`, the IC50 in “cells [8]” is 60 µM (inactive); at Major prion protein, 1.44 µM (active).

On to `C[C@H]1CCCCO[C@H](CN(C)Cc2ccccc2)[C@@H](C)CN([C@@H](C)CO)C(=O)c2cc(NC(=O)Nc3ccc(C(F)(F)F)cc3)ccc2O1`, for which the concentration at half-maximal activity (AC50) in [9] was 6.32 µM (active); in assay [10], 22.8 µM (active); in assay [11] it was 8.18 µM (active); in assay [12] it was 23.4 µM (active); in assay [13], 21.4 µM (active); in assay [14] it was 11.3 µM (active).

Take `CCCCCCCCN1C(=O)[C@H](CC(=O)NCCCN2CCCC2=O)C[C@@]2(C(=O)OC)CC(C)(C)CC=C12`: in [7], the AC50 is > 30 µM (inactive).

`C[C@H](CO)N1C[C@H](C)[C@H](CN(C)Cc2ccc(C(F)(F)F)cc2)OCCCC[C@H](C)Oc2ccc(NC(=O)Nc3ccccc3)cc2C1=O`: the AC50 in assay [10] was 27.6 µM (active); on Paired box protein Pax-8, 8.44 µM (active); in assay [13], 30.7 µM (active); in [15], 11.8 µM (active).

In the case of `CCS(=O)(=O)N1CCCCN2[C@H](C1)[C@@H](c1ccc(-c3ccc(C#N)cc3)cc1)[C@@H]2CO`, the AC50 (in assay [16]; in the assay with HEK293) was 18.6 µM (active) each time.

On to `COc1ccc(CN(C)C[C@H]2OCCCC[C@H](C)Oc3ccc(NC(=O)Nc4ccc(C(F)(F)F)cc4)cc3C(=O)N([C@@H](C)CO)C[C@H]2C)cc1`, for which the AC50 in assay [17] is 40.5 µM (active); in [10], 22.4 µM (active); in assay [18], 31.6 µM (active); in assay [19], > 70 µM (inactive); in assay [20], 34.4 µM (active); in assay [12] it was 25.1 µM (active). The concentration at half-maximal activity (AC50) at Paired box protein Pax-8 is 5.98 µM (active); in [13], 22 µM (active); in assay [21], > 70 µM (inactive); in assay [22], 33.7 µM (active); in assay [23], 14.4 µM (active).

As for `CCOc1ccccc1NC(=O)c1cccc(NC(=O)c2ccccc2Cl)c1`, the half-inhibitory concentration (IC50) in assay [24] is 2.63 µM (active); in assay [25], 0.084 µM (active).

For the compound `O=C(/C=C/c1ccc(F)cc1)N1CCN(S(=O)(=O)Cc2ccccc2)CC1`, the IC50 in assay [26] was 0.0287 µM (active).

On to `CC(C)(C)c1ccc(S(=O)(=O)N2CCN(C(=O)/C=C/c3ccc(Cl)c(Cl)c3)CC2)cc1`, for which the 50% inhibitory concentration (IC50) in [26] is 0.0468 µM (active).

As for `Cc1ccc2nc(-c3ccc(N)cc3)sc2c1`, the EC50 (with Streptococcus; in [27]; at Streptokinase A) was > 150 µM (not active) in each case. Besides, the AC50 in assay [2] is 51.3 µM (active); in assay [3], 1.55 µM (active); in assay [4], 50.6 µM (active); in assay [5], 1.88 µM (active). Further, the IC50 on Protein skinhead-1 is > 100 µM (inactive); in “cells [28]”, 29.7 µM (active). Besides, in assay [29], the 50% cytotoxic concentration (CC50) was > 50 µM (active).
